Experimental data as given in US6428971B1, “Teichoic acid enzymes and assays” (priority 1996, dated 2002).

B1: TAP: recombinant B. subtilis rodC (tagF) gene product overexpressed in E. coli DH10B/pBSRODC1, SEQ ID NO 2 with alanine to valine change (protein)
chain: MSLVVDTNKRKQKGKSFYTEEQKKVMIENTVIKCILKSLKNNLGSLELLISIDSEHQFLEDYQLFLKLKERRSGTESEFPLQNTGSLEYKTEINAHVLPMPVEMGQTYDFYVEFRKKYEDAEQEPLLKRLSAEVNSIERAFHVDQTTELLILPYTTDKGNFSIKVKREAKIIRFDQIEISSEEISITGYAGYLSSENQYRIKNLNLILKKGGETPIEEKFPIKLERKTHGLENMRADGFVPELYDFEVKVPLKEIPFSNEKRYVYRLFMEYICNDDEGTDIQFNSTALVLGDRKNKLKGLVSIIKTNNAPVRYEVFKKKKKQTLGIRVNDYSLKTRMKYFIKGKKKRLVSKIKKITKMRNKLITKTYKSLFMMASRMPVKRKTVIFESFNGKQYSCNPRAIYEYMRENHPEYKMYWSVNKQYSAPFDEKGIPYINRLSLKWLFAMARAEYWVVNSRLPLWIPKPSHTTYLQTWHGTPLKRLAMDMEEVHMPGTNTKKYKRNFIKEASNWDYLISPNGYSTEIFTRAFQFNKTMIESGYPRNDFLHNDNNEETISLIKSRLNIPRDKKVILYAPTWRDDQFYAKGRYKFDLDLDLHQLRQELGNEYIVILRMHYLVAENFDLGPFEGFAYDFSAYEDIRELYMVSDLLITDYSSVFFDFANLKRPMLFFVPDIETYRDKLRGFYFDFEKEAPGPLVKTTEETIEAIKQISSPDYKLPVSFGPFYDKFCYLESGRSSEKVVNTVFKAE

Columns and labels:
TAP [1] = target: T1, TAP (Bacillus subtilis, UniProt P13485, A616V); experiment: TAP enzyme assay (acid precipitation of radioactive lipoteichoic acid); format: biochemical, B. subtilis; conditions: alanine ester removed in 0.1M Tris-HCl pH 8.0, 24 hr, 37° C.
T1 construct: corresponds to a 2163 bp open reading frame beginning with ATG at bp 100 and ending with TAA at bp 2263; made in house; host or cells: E. coli DH10B / pBSRODC1 (pTrc99A vector); membrane preparation, 2M NaCl extract, High Q fraction
T1 sequence (P13485 26-746 A616V): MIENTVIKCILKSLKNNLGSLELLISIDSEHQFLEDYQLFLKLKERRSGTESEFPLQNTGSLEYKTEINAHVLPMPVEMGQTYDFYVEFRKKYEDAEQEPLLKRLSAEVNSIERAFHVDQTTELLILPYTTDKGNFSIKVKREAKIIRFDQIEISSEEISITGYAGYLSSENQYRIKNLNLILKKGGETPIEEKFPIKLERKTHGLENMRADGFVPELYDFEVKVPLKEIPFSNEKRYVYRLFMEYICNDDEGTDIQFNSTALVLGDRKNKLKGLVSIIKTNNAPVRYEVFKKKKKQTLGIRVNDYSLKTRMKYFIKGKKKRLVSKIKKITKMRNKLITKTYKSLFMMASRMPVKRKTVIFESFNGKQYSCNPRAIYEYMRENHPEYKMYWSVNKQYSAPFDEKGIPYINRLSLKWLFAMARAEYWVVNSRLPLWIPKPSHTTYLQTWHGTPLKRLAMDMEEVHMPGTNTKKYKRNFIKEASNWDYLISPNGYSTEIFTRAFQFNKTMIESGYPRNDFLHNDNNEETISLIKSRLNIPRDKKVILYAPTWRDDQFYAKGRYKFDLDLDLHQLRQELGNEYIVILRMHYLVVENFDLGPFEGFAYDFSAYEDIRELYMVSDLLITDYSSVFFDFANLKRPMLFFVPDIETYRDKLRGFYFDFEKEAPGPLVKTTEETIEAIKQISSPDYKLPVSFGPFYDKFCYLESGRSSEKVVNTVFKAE
Method: (§1) The enzymatic activity of TAP was assayed using CDP[^3H]glycerol as the glycerolphosphate donor and B. subtilis lipoteichoic acid as the acceptor. If active, the recombinant TAP enzyme should lengthen lipoteichoic acid with radioactive glycerolphosphate monomers, producing acid precipitable radioactivity. […] Extraction of TAP from the E. coli membrane with 2 M NaCl produced an active TAP preparation that could be separated from the cell membrane by ultracentrifugation.
(§2) The method of Burger and Glaser was generally followed. Burger M M, Glaser L. “The synthesis of teichoic acids” J. Biol. Chem. (1964) vol. 239, pp. 3168-3177, incorporated by reference. A typical assay contained 1-100 μl of enzyme, 10 μl of lipoteichoic acid (1 mg/ml B. subtilis lipoteichoic acid [Sigma] in water), 25 μl of CDP[^3H]glycerol (10 mM CDPglycerol Specific Activity 8.8 μCi/μMole), and enough Buffer A to bring the total volume to 250 μl. The reaction was incubated at 37° C. for one hour, mixed with 80 μl of 3N perchloric acid, and placed on ice for 5 min. The acid treated sample was spotted on a GF/C filter and washed with 4×5 ml of 0.15 N perchloric acid before liquid scintillation counting. Control reactions lacking either lipoteichoic acid or CDP[^3H]glycerol were included as negative controls.
(§3) The method of Burger and Glaser was generally followed. […]

TAP [2] = target: T2, TAP (Bacillus subtilis, UniProt P13485); experiment: as above; format: biochemical, B. subtilis; conditions: lipoteichoic acid from either B. subtilis, S. aureus, or E. faecalis
T2 construct: corresponds to a 2163 bp open reading frame beginning with ATG at bp 100 and ending with TAA at bp 2263; made in house; host or cells: E. coli DH10B / pBSRODC1 (pTrc99A vector); membrane preparation, 2M NaCl extract, High Q fraction
T2 sequence (P13485 26-746 A616V): as above
Method: as §1, §2, §3

[3] = Storage stability of the TAP enzyme; format: physicochemical; conditions: stored in ice

Molecule	effect of alanine removal from lipoteichoic acid on activity of the recombinant TAP enzyme (TAP [1])	acceptor of CDP[3H]glycerol (substrate for TAP) (TAP [2])	stability of the enzyme on storage [3]
lipoteichoic acid	improved activity	could serve as an acceptor	
B1			stable for two weeks
